Earlier results as cited in patent publication US20230140155A1, “MEDICAMENT FOR TREATMENT AND/OR PREVENTION OF CANCER” (TORAY INDUSTRIES, INC., priority 2020, published 2023).

Tested on: basal-like subtype breast cancer (BLBC)
Details: with docetaxel following epirubicin and cyclophosphamide (EC treatment)

[NH2][Pt]1([NH2])[O]C(=O)C2(CCC2)C(=O)[O]1 [carboplatin, (SP-4-2)-diammine[cyclobutan-1,1-dicaruboxylato(2-)-O,O′]platinum]
effectiveness for treatment of BLBC: not effective
